# Experimental data from patent publication US8029768B2, “Treatment of respiratory diseases” (Sosei R&D Ltd., priority 2000, dated 2011).
# Columns and labels:
# [1] = about 1 mg sample on sinter, 195 ml water reservoir, FIG. 1
# Method: A 195 ml reservoir was used in the dissolution test. The reservoir was filled with water and contained a sampling inlet port and a sampling outlet port. A sintered disk of approximately 50 mm diameter and 3 mm depth was placed in an opening on top of the reservoir, in contact with the water. A known mass (about 1 mg) of the sample to be tested was dropped onto the sinter and a timer started. At various times, 1 ml samples were removed from the reservoir and immediately replaced with 1 ml of water to maintain the volume in the system. The samples were analysed in a Cecil Aquarius CE7200 ultraviolet spectrophotometer at a wavelength of 200 nm. The concentration of the samples was calculated with a previously prepared calibration graph and the concentration versus time was plotted.
# [2] = tested on: asthma; conditions: inhaled, Walker et al. 1987; cited from earlier work
compound,measurement,setting,value
C[N+]1(C)CCC(OC(=O)C(O)(c2ccccc2)C2CCCC2)C1 (stereo not shown) [glycopyrrolate],time at which the maximum concentration is achieved,[1],10 min
same,concentration of glycopyrrolate in the reservoir at 5 minutes,[1]; first time point 5 minutes,greater than 10 mg/l
same,duration of effective treatment,[2],up to 12 hours
same,duration of effective treatment that appears to be maximal,[2],up to 8 hours
